Consider 3 compounds from paper PMC8956739, “A synthetic lipopeptide targeting top-priority multidrug-resistant Gram-negative pathogens” (Nature Communications, 2022).

Converted amounts (≈) assume the structure as drawn. Where two headings read alike, the source gives them in different places. Residues, ends and D or L forms follow the SMILES beside them.

In one data set the test system is A. baumannii ATCC 19606. In kind it is cell-based, Acinetobacter baumannii. As for the experimental part: (§1) MICs were determined in cation-adjusted Mueller–Hinton broth (CaMHB) by the broth micro-dilution method against ATCC strains and clinical isolates. MICs in the presence of Survanta® were determined as described above against P. aeruginosa ATCC 27853. In the 100 μL of fresh CaMHB containing polymyxins, 10% Survanta® (v/v, 2.5 mg/mL phospholipids) was added. MICs in the presence and absence of Survanta® were compared to determine the effect of binding to lung surfactant on the antibacterial activity of polymyxins.

A further data set relates to A. baumannii FADDI-AB034. In kind it is cell-based, Acinetobacter baumannii. As for the experimental part:
as §1

In the next data set the test system is A. baumannii FADDI-AB030. In kind it is cell-based, Acinetobacter baumannii. As to the method: as §1
Data set [1] relates to K. pneumoniae FADDI-KP032. Format: cell-based, Klebsiella pneumoniae. As to the method:
as §1

In data set [2] the test system is K. pneumoniae FADDI-KP065. Format: cell-based, Klebsiella pneumoniae. As for the experimental part: as §1
The subject of data set [3] is P. aeruginosa FADDI-PA038. Format: cell-based, Pseudomonas aeruginosa. As for the experimental part:
as §1

Another data set relates to P. aeruginosa ATCC 27853. Format: cell-based, Pseudomonas aeruginosa. As to the method: as §1
Data set [4] concerns P. aeruginosa FADDI-PA025. Format: cell-based, Pseudomonas aeruginosa. As to the method:
as §1

Another data set concerns Swiss mice, kidney. Nature of the data set: Nephrotoxicity in mice (kidney histopathology). Format: in vivo, mouse. To be noted: for Kidney histopathology (SQS Score): 72 mg/kg/d subcutaneously in six divided doses every 2 h, n = 3; for Kidney histopathology, mice with the SQS score: mouse, in vivo. As for the experimental part: The experimental methodology has been previously reported by our group. Briefly, individual lipopeptide solutions were prepared in sterile saline (6 mg/mL). Swiss mice (female, 7-week-old, 22–28 g) were subcutaneously administered at 12 mg/kg in, 6 doses every 2 h to reach a total dose of 72 mg/kg (n = 3). For high-dose nephrotoxicity experiments, mice were intraperitoneally administered at 20 or 25 mg/kg, in 6 doses every 2 h to reach a total dose of 120 mg/kg (n = 6) or 150 mg/kg (n = 3). At 20 h after the last dose, the right kidney from each mouse was collected and placed in 10% buffered (pH 7.4) formalin (Sigma-Aldrich, Castle Hill, NSW, Australia). The kidneys were subjected to histological examination at the Australian Phenomics Network-Histopathology and Organ Pathology (University of Melbourne, Parkville, VIC, Australia), who was blind to the treatment groups.

Turning to `CC[C@@H]1NC(=O)[C@@H](CC(C)C)NC(=O)[C@H](CCN)NC(=O)[C@@H](NC(=O)[C@H](CN)NC(=O)[C@@H](NC(=O)[C@H](CCN)NC(=O)c2ccccc2Cl)[C@@H](C)O)CCNC(=O)[C@H]([C@@H](C)O)NC(=O)[C@H](CCN)NC(=O)[C@H](CCN)NC1=O` [Lipopeptide F350] (HELM PEPTIDE1{[O=C(c1ccccc1Cl)[*:2]].[Dab].T.[NC[C@H](N[*:1])C(=O)[*:2]].[Dab].[Dab].[dL].[Abu].[Dab].[Dab].T}$PEPTIDE1,PEPTIDE1,5:R3-11:R2$$$V2.0; bridges inferred), in the data set with A. baumannii ATCC 19606, the “MIC A. baumannii ATCC 19606” value came to 8 µg/mL (≈ 7.11 µM). For the same compound, the “MIC A. baumannii FADDI-AB034” value in the data set with A. baumannii FADDI-AB034 (carbapenem-resistant isolate) turned out to be 4 µg/mL (≈ 3.55 µM). Further, the “MIC A. baumannii FADDI-AB030” value with A. baumannii FADDI-AB030 (carbapenem-resistant isolate) is recorded as 4 µg/mL (≈ 3.55 µM). In data set [1] (carbapenem-resistant isolate), the “MIC K. pneumoniae FADDI-KP032” value stood at 1 µg/mL (≈ 0.888 µM). In addition, the “MIC K. pneumoniae FADDI-KP065” value in [2] (carbapenem-resistant isolate) is 0.5 µg/mL (≈ 0.444 µM). Besides, the “MIC P. aeruginosa FADDI-PA038” value in [3] (carbapenem-resistant isolate) amounted to 2 µg/mL (≈ 1.78 µM). For the same compound, the “MIC P. aeruginosa ATCC 27853” value with P. aeruginosa ATCC 27853 turned out to be 0.5 µg/mL (≈ 0.444 µM). In addition, the MIC, 10% Survanta in the data set on P. aeruginosa ATCC 27853 (P. aeruginosa ATCC 27853, 10% Survanta) came to 0.5 µg/mL (≈ 0.444 µM). The compound also came in with an MIC, No Survanta in the data set on P. aeruginosa ATCC 27853 (P. aeruginosa ATCC 27853, no surfactant) of 0.5 µg/mL (≈ 0.444 µM). Also, in [4] (MDR clinical isolate), the “MIC P. aeruginosa FADDI-PA025” value is listed as 4 µg/mL (≈ 3.55 µM).
Consider `CCCCCCCC(=O)N[C@@H](CCN)C(=O)N[C@H](C(=O)N[C@H](CO)C(=O)N[C@H]1CCNC(=O)[C@H]([C@@H](C)O)NC(=O)[C@H](CCN)NC(=O)[C@H](CCN)NC(=O)[C@H]([C@@H](C)O)NC(=O)[C@@H](CC(C)C)NC(=O)[C@H](CCN)NC1=O)[C@@H](C)O` [Lipopeptide F183] (HELM PEPTIDE1{[CCCCCCCC(=O)[*:2]].[Dab].T.[dS].[Dab].[Dab].[dL].T.[Dab].[Dab].T}$PEPTIDE1,PEPTIDE1,5:R3-11:R2$$$V2.0), for which the “MIC A. baumannii ATCC 19606” value against A. baumannii ATCC 19606 (ATCC 19606) came to 1 µg/mL (≈ 0.885 µM). Besides, in the data set on A. baumannii FADDI-AB034 (FADDI-AB034), the “MIC A. baumannii FADDI-AB034” value is listed as 0.25 µg/mL (≈ 0.221 µM). In addition, the “MIC A. baumannii FADDI-AB030” value in the data set on A. baumannii FADDI-AB030 (FADDI-AB030) was less than 0.125 µg/mL. Besides, in data set [1] (FADDI-KP032), the “MIC K. pneumoniae FADDI-KP032” value is on record as less than 0.125 µg/mL. For the same compound, the “MIC K. pneumoniae FADDI-KP065” value in data set [2] (FADDI-KP065) came to 0.25 µg/mL (≈ 0.221 µM). Also, the “MIC P. aeruginosa FADDI-PA038” value in data set [3] (FADDI-PA038) worked out at 4 µg/mL (≈ 3.54 µM). Also, in the data set on P. aeruginosa ATCC 27853 (ATCC 27853), the “MIC P. aeruginosa ATCC 27853” value is on record as 4 µg/mL (≈ 3.54 µM) and the MIC, No Survanta stood at 4 µg/mL (≈ 3.54 µM). Moreover, the “MIC P. aeruginosa FADDI-PA025” value in [4] (FADDI-PA025) is greater than 32 µg/mL. In addition, in the data set with Swiss mice, kidney, the “Kidney histopathology (SQS Score)” value was 0 (SQS 0 = no significant change (overall score, <1)) and the “Kidney histopathology, mice with the SQS score” value is 3/3.
Consider `CCCCCCCC(=O)N[C@@H](CCN)C(=O)N[C@H](C(=O)N[C@@H](CCN)C(=O)N[C@H]1CCNC(=O)[C@H]([C@@H](C)O)NC(=O)[C@H](CCN)NC(=O)[C@H](CCN)NC(=O)[C@H]([C@@H](C)O)NC(=O)[C@@H]([C@H](C)O)NC(=O)[C@H](CCN)NC1=O)[C@@H](C)O` [Lipopeptide F230] (HELM PEPTIDE1{[CCCCCCCC(=O)[*:2]].[Dab].T.[Dab].[Dab].[Dab].[dT].T.[Dab].[Dab].T}$PEPTIDE1,PEPTIDE1,5:R3-11:R2$$$V2.0), for which, in the data set with A. baumannii ATCC 19606 (ATCC 19606), the “MIC A. baumannii ATCC 19606” value was greater than 32 µg/mL. For the same compound, the “MIC A. baumannii FADDI-AB034” value in the data set with A. baumannii FADDI-AB034 (FADDI-AB034) was greater than 32 µg/mL. Moreover, the “MIC A. baumannii FADDI-AB030” value with A. baumannii FADDI-AB030 (FADDI-AB030) is reported as greater than 32 µg/mL. Also, in [1] (FADDI-KP032), the “MIC K. pneumoniae FADDI-KP032” value amounted to 16 µg/mL (≈ 14.1 µM). The “MIC K. pneumoniae FADDI-KP065” value in data set [2] (FADDI-KP065) was 32 µg/mL (≈ 28.3 µM). The “MIC P. aeruginosa FADDI-PA038” value in [3] (FADDI-PA038) is greater than 32 µg/mL. Moreover, in the data set on P. aeruginosa ATCC 27853 (ATCC 27853), the “MIC P. aeruginosa ATCC 27853” value is greater than 32 µg/mL. In addition, the “MIC P. aeruginosa FADDI-PA025” value in data set [4] (FADDI-PA025) is given as greater than 32 µg/mL. For the same compound, in the data set on Swiss mice, kidney, the “Kidney histopathology (SQS Score)” value is listed as 0 (SQS 0 = no significant change (overall score, <1)) and the “Kidney histopathology, mice with the SQS score” value is listed as 3/3.
